pIC50: −log10 of the molar value. Activity calls are given as the source filed them. No cut-off for these calls is given here.
Key:
[1] = target: Receptor tyrosine-protein kinase erbB-4 (Homo sapiens) (UniProt Q15303); experiment: Inhibition of human ERBB4 expressed in bacterial system assessed as remaining enzyme activity at 1000 nM relative to untreated control
[2] = target: Receptor tyrosine-protein kinase erbB-2 (Homo sapiens) (UniProt P04626); experiment: Inhibition of human ERBB2 expressed in mammalian system assessed as remaining enzyme activity at 1000 nM relative to untreated control
Receptor tyrosine-protein kinase erbB-2 (Homo sapiens), sequence (P04626 whole entry): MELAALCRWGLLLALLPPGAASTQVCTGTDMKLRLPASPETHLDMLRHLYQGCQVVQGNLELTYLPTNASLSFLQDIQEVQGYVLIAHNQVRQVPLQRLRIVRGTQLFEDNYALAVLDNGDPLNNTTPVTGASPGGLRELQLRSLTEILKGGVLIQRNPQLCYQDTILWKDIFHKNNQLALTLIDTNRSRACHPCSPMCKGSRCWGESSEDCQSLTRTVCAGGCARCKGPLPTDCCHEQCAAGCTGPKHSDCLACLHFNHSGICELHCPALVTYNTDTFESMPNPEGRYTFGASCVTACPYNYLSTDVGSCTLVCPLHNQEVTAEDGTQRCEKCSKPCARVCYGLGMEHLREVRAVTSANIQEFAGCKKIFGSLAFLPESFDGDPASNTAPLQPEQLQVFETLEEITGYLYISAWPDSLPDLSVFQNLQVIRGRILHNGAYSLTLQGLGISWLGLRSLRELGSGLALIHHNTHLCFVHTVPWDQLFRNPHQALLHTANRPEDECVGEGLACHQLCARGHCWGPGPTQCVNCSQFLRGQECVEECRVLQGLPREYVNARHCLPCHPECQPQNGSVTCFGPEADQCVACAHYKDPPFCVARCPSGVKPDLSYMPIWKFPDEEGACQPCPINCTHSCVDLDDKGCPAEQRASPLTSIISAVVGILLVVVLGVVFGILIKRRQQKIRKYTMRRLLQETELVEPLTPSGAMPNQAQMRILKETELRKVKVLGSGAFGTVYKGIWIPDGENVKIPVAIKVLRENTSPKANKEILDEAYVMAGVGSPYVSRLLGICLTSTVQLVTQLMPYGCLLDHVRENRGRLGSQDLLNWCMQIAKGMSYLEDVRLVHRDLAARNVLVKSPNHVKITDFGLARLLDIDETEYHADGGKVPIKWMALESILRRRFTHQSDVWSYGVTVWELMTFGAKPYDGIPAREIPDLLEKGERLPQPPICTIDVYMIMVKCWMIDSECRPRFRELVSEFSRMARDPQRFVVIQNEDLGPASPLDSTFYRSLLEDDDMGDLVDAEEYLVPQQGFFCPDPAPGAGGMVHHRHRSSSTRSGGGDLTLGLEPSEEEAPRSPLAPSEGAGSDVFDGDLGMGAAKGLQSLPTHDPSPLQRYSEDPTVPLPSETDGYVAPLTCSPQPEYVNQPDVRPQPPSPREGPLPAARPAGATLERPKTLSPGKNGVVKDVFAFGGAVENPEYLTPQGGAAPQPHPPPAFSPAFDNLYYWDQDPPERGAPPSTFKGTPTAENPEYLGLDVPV

[3] = Tmax in ICR mouse at 1 mg/kg, iv by LC-MS/MS method; assay type: ADME, organism-based; conditions: in vivo
NCI-H1975 [4] = experiment: Antitumor activity against human NCI-H1975 cells xenografted in BALB/c mouse assessed as inhibition of tumor growth at 50 mg/kg, po qd for 14 consecutive days; assay type: functional; conditions: read-out: TGI
[5] = Half life in mouse liver microsomes at 1 uM in presence of NADPH by LC-MS/MS method; assay type: ADME, Microsome
[6] = Half life in ICR mouse at 10 mg/kg, po by LC-MS/MS method; assay type: ADME, organism-based; conditions: in vivo
[7] = Cmax in ICR mouse at 10 mg/kg, po by LC-MS/MS method; assay type: ADME, organism-based; set-up: dose 10 mg/kg, route oral; conditions: in vivo
[8] = target: T1, Cyclin-G-associated kinase (Homo sapiens) (UniProt O14976); experiment: Inhibition of human GAK expressed in bacterial system assessed as remaining enzyme activity at 1000 nM relative to untreated control
T1 sequence (whole entry): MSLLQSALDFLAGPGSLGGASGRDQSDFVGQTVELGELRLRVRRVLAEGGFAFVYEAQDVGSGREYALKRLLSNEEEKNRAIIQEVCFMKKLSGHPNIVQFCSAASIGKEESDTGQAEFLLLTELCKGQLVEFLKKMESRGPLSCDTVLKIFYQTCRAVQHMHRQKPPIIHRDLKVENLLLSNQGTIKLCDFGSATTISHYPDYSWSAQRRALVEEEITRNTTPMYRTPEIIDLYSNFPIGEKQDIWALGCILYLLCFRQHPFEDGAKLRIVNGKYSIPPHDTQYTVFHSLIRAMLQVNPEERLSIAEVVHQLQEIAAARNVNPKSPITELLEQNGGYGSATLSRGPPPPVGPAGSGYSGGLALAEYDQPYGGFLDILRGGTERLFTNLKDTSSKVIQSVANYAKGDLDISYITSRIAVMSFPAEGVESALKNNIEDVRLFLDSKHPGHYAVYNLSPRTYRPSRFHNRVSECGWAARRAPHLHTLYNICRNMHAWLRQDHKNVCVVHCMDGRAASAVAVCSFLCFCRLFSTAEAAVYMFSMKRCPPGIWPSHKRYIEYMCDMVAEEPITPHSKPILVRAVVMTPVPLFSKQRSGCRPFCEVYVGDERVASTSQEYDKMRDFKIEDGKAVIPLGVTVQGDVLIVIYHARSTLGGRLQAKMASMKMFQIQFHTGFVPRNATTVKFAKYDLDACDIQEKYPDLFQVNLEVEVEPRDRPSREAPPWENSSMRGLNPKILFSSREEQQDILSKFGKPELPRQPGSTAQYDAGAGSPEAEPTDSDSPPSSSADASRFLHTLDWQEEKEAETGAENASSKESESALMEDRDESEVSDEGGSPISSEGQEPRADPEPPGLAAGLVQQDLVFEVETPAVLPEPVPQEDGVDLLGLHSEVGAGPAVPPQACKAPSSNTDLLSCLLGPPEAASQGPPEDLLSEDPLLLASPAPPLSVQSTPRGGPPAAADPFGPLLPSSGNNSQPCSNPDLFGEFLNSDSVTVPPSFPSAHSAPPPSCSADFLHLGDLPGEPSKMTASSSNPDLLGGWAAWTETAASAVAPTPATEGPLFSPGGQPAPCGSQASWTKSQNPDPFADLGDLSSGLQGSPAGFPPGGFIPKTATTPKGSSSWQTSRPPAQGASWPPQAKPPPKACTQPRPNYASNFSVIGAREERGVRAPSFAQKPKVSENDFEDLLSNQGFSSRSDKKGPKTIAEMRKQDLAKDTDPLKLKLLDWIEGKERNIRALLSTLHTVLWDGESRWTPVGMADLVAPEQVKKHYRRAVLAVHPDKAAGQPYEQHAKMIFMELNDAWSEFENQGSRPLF

[9] = Tmax in ICR mouse at 10 mg/kg, po by LC-MS/MS method; assay type: ADME, organism-based; conditions: in vivo
[10] = target: Epidermal growth factor receptor (Homo sapiens, UniProt P00533); experiment: Inhibition of EGF-induced EGFR kinase domain phosphorylation in human NCI-H1975 cells at 1000 nM pre-incubated for 2 hrs followed by stimulation with EGF for 15 mins by Western blot method; assay type: cell-based
Epidermal growth factor receptor, sequence (P00533 whole entry, the tested form may be a part): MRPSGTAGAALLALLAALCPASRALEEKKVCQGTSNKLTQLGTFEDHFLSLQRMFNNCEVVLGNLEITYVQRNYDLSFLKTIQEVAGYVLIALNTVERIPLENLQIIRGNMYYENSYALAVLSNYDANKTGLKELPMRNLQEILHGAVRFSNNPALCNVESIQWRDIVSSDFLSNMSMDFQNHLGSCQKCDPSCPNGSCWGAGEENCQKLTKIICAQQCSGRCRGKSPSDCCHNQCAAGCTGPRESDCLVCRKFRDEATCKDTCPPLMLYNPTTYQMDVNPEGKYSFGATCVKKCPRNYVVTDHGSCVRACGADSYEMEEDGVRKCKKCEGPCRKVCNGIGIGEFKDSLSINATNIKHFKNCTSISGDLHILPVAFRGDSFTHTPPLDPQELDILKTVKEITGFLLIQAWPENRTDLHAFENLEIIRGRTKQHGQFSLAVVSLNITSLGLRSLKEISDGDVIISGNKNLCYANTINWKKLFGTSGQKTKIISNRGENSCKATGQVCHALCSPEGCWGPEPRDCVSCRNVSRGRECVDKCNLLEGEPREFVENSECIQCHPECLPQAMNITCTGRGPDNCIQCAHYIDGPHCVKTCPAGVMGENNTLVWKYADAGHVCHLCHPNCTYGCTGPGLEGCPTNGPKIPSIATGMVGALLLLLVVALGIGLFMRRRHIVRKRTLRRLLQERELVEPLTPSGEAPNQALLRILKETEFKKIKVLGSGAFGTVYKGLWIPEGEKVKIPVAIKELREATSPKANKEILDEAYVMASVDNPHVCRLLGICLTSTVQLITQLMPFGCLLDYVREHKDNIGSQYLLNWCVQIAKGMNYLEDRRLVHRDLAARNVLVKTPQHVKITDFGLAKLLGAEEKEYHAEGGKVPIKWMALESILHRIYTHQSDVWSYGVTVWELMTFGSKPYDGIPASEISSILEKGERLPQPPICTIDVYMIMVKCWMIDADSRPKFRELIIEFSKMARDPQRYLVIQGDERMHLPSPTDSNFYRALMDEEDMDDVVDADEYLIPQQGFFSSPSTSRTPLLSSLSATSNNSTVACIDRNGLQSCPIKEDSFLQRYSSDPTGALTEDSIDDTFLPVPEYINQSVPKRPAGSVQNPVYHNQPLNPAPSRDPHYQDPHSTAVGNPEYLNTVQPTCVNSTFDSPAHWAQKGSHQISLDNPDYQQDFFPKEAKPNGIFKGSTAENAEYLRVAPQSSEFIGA

[11] = Oral bioavailability in ICR mouse at 10 mg/kg by LC-MS/MS method; assay type: ADME, organism-based; conditions: in vivo
[12] = Toxicity in human NCI-H1975 cells xenografted BALB/c mouse assessed as mouse mortality at 50 mg/kg, po qd for 14 consecutive days; assay type: organism-based; conditions: in vivo
NCI-H1975 [13] = experiment: Antiproliferative activity against human NCI-H1975 cells incubated for 72 hrs by SRB assay; assay type: functional, cell-based; conditions: NCI-H1975, 72 h
[14] = Toxicity in human NCI-H1975 cells xenografted BALB/c mouse assessed as body weight loss at 50 mg/kg, po qd for 14 consecutive days; assay type: organism-based; conditions: in vivo
[15] = target: T2, Tyrosine-protein kinase TXK (Homo sapiens) (UniProt P42681); experiment: Inhibition of human TXK expressed in bacterial system assessed as remaining enzyme activity at 1000 nM relative to untreated control
T2 sequence (whole entry): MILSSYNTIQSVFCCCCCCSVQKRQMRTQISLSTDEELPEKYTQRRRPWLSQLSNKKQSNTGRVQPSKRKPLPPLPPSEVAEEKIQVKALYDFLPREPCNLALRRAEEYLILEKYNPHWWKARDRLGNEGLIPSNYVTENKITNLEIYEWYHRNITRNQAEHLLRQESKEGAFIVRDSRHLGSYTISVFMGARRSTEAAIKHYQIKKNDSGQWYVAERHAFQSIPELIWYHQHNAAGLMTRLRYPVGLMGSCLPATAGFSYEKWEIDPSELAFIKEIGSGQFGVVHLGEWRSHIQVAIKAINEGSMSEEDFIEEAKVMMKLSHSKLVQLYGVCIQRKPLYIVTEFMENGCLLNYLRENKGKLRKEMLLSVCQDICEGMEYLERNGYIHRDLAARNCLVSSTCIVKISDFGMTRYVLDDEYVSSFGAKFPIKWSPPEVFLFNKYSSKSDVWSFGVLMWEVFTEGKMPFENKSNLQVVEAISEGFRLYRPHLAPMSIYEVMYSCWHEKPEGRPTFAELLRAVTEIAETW

NCI-H1975 [16] = conditions: Homo sapiens, at 50 mg/kg
Description: Antitumor activity against human NCI-H1975 cells xenografted in BALB/c mouse assessed as inhibition of tumor cell proliferation by measuring Ki-67 expression at 50 mg/kg, po qd for 14 consecutive days by immunohistochemistry

[17] = AUC (0 to t) in ICR mouse at 10 mg/kg, po by LC-MS/MS method; assay type: ADME, organism-based; conditions: in vivo
[18] = AUC (0 to infinity) in ICR mouse at 10 mg/kg, po by LC-MS/MS method; assay type: ADME, organism-based; set-up: dose 10 mg/kg, time infinity, route oral; conditions: in vivo
[19] = Apparent volume of distribution in ICR mouse at 1 mg/kg, iv by LC-MS/MS method; assay type: ADME, organism-based; conditions: in vivo, read-out: Vz

Receptor tyrosine-protein kinase erbB-4 (Homo sapiens), sequence (Q15303 whole entry): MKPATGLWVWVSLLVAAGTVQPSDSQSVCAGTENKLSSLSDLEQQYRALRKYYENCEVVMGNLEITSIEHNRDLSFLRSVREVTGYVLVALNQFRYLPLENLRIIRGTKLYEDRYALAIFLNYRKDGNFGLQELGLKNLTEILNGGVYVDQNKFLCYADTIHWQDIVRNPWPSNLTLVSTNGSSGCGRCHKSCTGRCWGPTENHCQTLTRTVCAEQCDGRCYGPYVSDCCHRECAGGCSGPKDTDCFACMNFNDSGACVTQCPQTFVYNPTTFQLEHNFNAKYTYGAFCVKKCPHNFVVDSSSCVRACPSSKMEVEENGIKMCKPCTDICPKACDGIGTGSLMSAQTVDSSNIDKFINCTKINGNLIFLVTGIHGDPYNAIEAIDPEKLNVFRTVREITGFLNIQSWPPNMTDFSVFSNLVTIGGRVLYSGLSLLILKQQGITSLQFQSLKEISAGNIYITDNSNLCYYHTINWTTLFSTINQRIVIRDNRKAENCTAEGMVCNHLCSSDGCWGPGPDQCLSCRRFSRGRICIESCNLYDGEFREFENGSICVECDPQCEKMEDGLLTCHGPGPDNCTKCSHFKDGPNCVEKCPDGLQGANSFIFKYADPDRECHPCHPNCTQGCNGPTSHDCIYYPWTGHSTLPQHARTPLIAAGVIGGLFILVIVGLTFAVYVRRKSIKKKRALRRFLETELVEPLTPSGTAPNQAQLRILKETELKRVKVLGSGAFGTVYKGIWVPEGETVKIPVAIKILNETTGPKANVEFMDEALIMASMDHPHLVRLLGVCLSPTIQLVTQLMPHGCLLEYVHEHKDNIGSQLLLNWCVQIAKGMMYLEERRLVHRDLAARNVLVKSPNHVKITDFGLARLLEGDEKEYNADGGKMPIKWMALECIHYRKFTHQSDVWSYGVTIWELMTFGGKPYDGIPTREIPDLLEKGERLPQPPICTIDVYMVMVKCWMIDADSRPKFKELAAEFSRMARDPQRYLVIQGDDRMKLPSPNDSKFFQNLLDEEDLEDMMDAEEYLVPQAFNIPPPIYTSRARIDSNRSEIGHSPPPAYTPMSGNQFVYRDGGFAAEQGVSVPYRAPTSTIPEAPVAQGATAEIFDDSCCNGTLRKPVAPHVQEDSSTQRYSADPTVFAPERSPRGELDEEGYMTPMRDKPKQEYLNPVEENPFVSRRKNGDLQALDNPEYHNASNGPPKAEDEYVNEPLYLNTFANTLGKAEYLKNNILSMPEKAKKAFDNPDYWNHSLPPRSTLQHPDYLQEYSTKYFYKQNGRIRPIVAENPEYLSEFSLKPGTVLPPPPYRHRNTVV

Q: For `C=CC(=O)Nc1cccc(-n2c(=O)c(=O)n(C(C)C)c3cnc(Nc4ccc(N5CCN(C)CC5)cc4OC)nc32)c1`, which Activity [1] is on record?
A: The Activity was < 1%.

Q: What about the Activity [2] of the same molecule?
A: The Activity was < 1%.

Q: What about the Tmax [3] of the same molecule?
A: The Tmax was 0.9 h.

Q: What about the inhibition in vivo at 50 mg/kg (NCI-H1975 [4]) of the same molecule?
A: Its inhibition in vivo at 50 mg/kg is 52%.

Q: And the half-life at 1 µM [5]?
A: The half-life at 1 µM was 0.85 h.

Q: And the half-life [6]?
A: The half-life was 1.1 h.

Q: What about the Cmax [7] of the same molecule?
A: Its Cmax is 136 ng/mL.

Q: What about the Activity [8] of the same molecule?
A: The Activity was < 1%.

Q: And the Tmax [9]?
A: Its Tmax is 2 h.

Q: What about the inhibition [10] of the same molecule?
A: The inhibition was “inactive”.

Q: What about the bioavailability [11] of the same molecule?
A: Its bioavailability is 48%.

Q: What about the Activity [12] of the same molecule?
A: The Activity was “Non-Toxic”.

Q: And the pIC50 (NCI-H1975 [13])?
A: Its pIC50 is 7.74.

Q: What about the Activity [14] of the same molecule?
A: The Activity was “Non-Toxic”.

Q: And the Activity [15]?
A: The Activity was < 1%.

Q: And the inhibition (NCI-H1975 [16])?
A: The inhibition was “Active”.

Q: And the AUC(0-t) [17]?
A: The AUC(0-t) was 673 ng·h/mL.

Q: What about the AUC(0-inf) [18] of the same molecule?
A: Its AUC(0-inf) is 680 ng·h/mL.

Q: What about the Vd [19] of the same molecule?
A: Its Vd is 8.01 L/kg.

From ChEMBL document CHEMBL4425144, “Discovery and Structural Optimization of N5-Substituted 6,7-Dioxo-6,7-dihydropteridines as Potent and Selective Epidermal Growth Factor Receptor (EGFR) Inhibitors against L858R/T790M Resistance Mutation” (J Med Chem, 2016)
